Measured values published in PubChem BioAssay (NCI).
“And” between values parts separate entries of the source, which are not always exact repeats. Identical values can stand only once.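 Grown in 96-well plates, cells were treated for 48 hours with each compound at five concentrations. Insufficient inhibition: endpoint recorded as highest concentration tested. Here, GI50 denotes the concentration required for 50% inhibition of growth. TGI marks complete inhibition of growth.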

Legend:
Experiment in all cases: NCI anticancer screen, dose series, 48 h
XF 498 CNS = test system: XF 498 CNS
DLD-1 colon = test system: DLD-1 colon
DMS 114 small cell lung = test system: DMS 114 small cell lung
M19-MEL melanoma = test system: M19-MEL melanoma
HOP-18 NSCLC = test system: HOP-18 NSCLC
LXFL 529 NSCLC = test system: LXFL 529 NSCLC
RXF-631 renal = test system: RXF-631 renal
DMS 273 small cell lung = test system: DMS 273 small cell lung
MDA-N = test system: MDA-N

| SMILES | TGI (XF 498 CNS) | TGI (DLD-1 colon) | TGI (DMS 114 small cell lung) | TGI (M19-MEL melanoma) | TGI (HOP-18 NSCLC) | TGI (LXFL 529 NSCLC) | TGI (RXF-631 renal) | TGI (DMS 273 small cell lung) | TGI (MDA-N) | other results |
| --- | --- | --- | --- | --- | --- | --- | --- | --- | --- | --- |
| COc1cccc(-c2cc(=O)c3cc4c(cc3[nH]2)OCO4)c1 | 2.59 µM | > 100 µM | > 100 µM | > 100 µM | > 100 µM | 23.2 µM | > 100 µM | – | – | – |
| COc1cc(C(=O)N[C@H]2CCc3cc(OC)c(OC)c(OC)c3-c3ccc(SC)c(=O)cc32)cc(OC)c1OC | – | 25 µM and > 100 µM | 0.144 µM | 25 µM and > 100 µM | – | – | > 100 µM | > 100 µM | – | GI50 (DLD-1 colon): 23.4 nM; GI50 (M19-MEL melanoma): 15.6 nM |
| CCOc1cccc2c1N[S@@](=O)S2 | > 100 µM | > 100 µM | – | > 100 µM | – | > 100 µM | > 100 µM | > 100 µM | – | – |
| CN(C)N1C(=O)SCC(c2ccccc2)(c2ccccc2)C1=O | – | – | – | – | – | – | – | – | > 100 µM | – |
| COC(=O)C(C(=O)C(=O)Nc1ccc(C)cc1C)c1csc(-n2nc(-c3ccccc3)cc2-c2ccccc2)n1 (stereo not drawn) | > 100 µM | > 100 µM | > 100 µM | > 100 µM | > 100 µM | > 100 µM | > 100 µM | > 100 µM | – | – |
| CC(/C=C/C(O)=C1/C(=O)CNC1=O)=C\[C@@H](C)[C@H]1O[C@@]2(C)O[C@H](C(=O)[C@@H]3O[C@@]32C)[C@@H]1C | – | – | – | – | – | – | – | – | > 100 µM | – |
| O=c1c2c(-c3ccccc3)c3ccccc3nc2cnn1-c1ccccc1 | – | – | > 100 µM | > 100 µM | > 100 µM | > 100 µM | – | > 100 µM | – | – |
| C=CC(C)(C)n1cc(C2=C(O)C(=O)C(c3cn(C(C)(C)C=C)c4ccccc34)=C(O)C2=O)c2ccccc21 | – | – | – | – | – | – | – | – | 4.98 µM | – |
| C=C1C(=O)C23[C@H](O)C1CC[C@H]2[C@]12COC3(O)[C@@H](O)[C@@H]1C(C)(C)CC[C@@H]2O | 9.82 µM | 25.1 µM | 21.3 µM | 26.3 µM | 24.6 µM | 2.56 µM | 22.7 µM | 27.3 µM | – | – |
| CCCc1nc(Cl)nc(Cl)c1Cl | – | – | – | – | – | – | – | – | 0.398 µM | – |
| CCCC(=O)N[C@H]1CCc2cc(OC)c(OC)c(OC)c2-c2ccc(SC)c(=O)cc21 | – | > 100 µM | < 0.01 µM | > 100 µM | > 100 µM | > 100 µM | 1.42 µM | > 100 µM | < 0.01 µM | – |
| COC(=O)c1cc(=O)nc2cc3cccccc3n12 | > 100 µM | > 100 µM | – | > 100 µM | > 100 µM | > 100 µM | – | – | – | – |
| CC1=Nc2ccccc2SC(c2c(Cl)cccc2Cl)C1 (stereo not drawn) | 3.21 µM | 1.42 µM | 3.19 µM | 2.44 µM | 11.1 µM | 1.69 µM | – | 2.19 µM | – | – |
| CC1CC2(S(=O)(=O)c3ccccc3)ON1CC2S(=O)(=O)c1ccccc1 (stereo not drawn) | > 100 µM | > 100 µM | > 100 µM | > 100 µM | – | > 100 µM | > 100 µM | > 100 µM | – | – |
| OC1=CN=COc2ccccc21 | – | > 100 µM | > 100 µM | > 100 µM | – | > 100 µM | > 100 µM | > 100 µM | – | – |
| COc1ccc(/C=C(\NC(=O)c2ccccc2)c2nc3ccccc3[nH]2)cc1OC | > 100 µM | > 100 µM | > 100 µM | > 100 µM | > 100 µM | > 100 µM | > 100 µM | – | – | – |
| CCCCCCC(O)CC[C@H]1CCC[C@@H](C)N1 (stereo partly drawn) | – | > 100 µM | > 31.6 µM | > 31.6 µM | > 100 µM | > 100 µM | – | > 100 µM | – | – |
| O=C1CCC2(c3ccccc3)Nc3ccccc3N12 (stereo not drawn) | > 100 µM | > 100 µM | > 100 µM | > 100 µM | – | > 100 µM | > 100 µM | – | – | – |
| O=[N+]([O-])c1cc([As](Br)c2ccc(O)c([N+](=O)[O-])c2)ccc1O | – | – | – | – | – | – | – | – | 3.4 µM | – |
| COc1ccccc1-c1cc(=O)c2cc(C)c(C)c(C(=O)O)c2o1 | > 100 µM | > 100 µM | > 100 µM | > 100 µM | – | > 100 µM | – | > 100 µM | – | – |
| CCOc1ccc(N=C(NC(=O)c2ccccc2)SC)cc1 | – | > 100 µM | > 100 µM | > 100 µM | > 100 µM | > 100 µM | – | > 100 µM | – | – |

| SMILES | TGI (XF 498 CNS) | TGI (DLD-1 colon) | TGI (DMS 114 small cell lung) | TGI (M19-MEL melanoma) | TGI (HOP-18 NSCLC) | TGI (LXFL 529 NSCLC) | TGI (RXF-631 renal) | TGI (DMS 273 small cell lung) | TGI (MDA-N) | other results |
| --- | --- | --- | --- | --- | --- | --- | --- | --- | --- | --- |
| COc1cc2c(c3c1c(=O)c1ccccc1n3C)C=CC(C)(C)O2 | – | > 100 µM | > 100 µM | > 100 µM | > 100 µM | > 100 µM | – | > 100 µM | – | – |
| Clc1ccccc1CN1COc2c(ccc3cccnc23)C1 | 22.4 µM | 17.5 µM | 6.19 µM | 15.1 µM | – | – | – | 11.1 µM | – | – |
| CSc1ncnc2c1ncn2CC(=O)C1CCC2C3CCC4=CC(=O)CCC4(C)C3CCC12C (stereo not drawn) | – | – | – | – | – | – | – | – | 12.4 µM | – |
| CC(=O)c1cccc(NC(=O)C(=O)c2c(O)c3ccccc3oc2=O)c1 | – | – | – | – | – | – | – | – | > 100 µM | – |
| O=C1/C(=C\c2ccco2)Oc2ccccc21 | – | – | – | – | – | – | – | – | > 100 µM | – |
| O=C1c2ccccc2C(=O)C12CCc1ccccc12 | > 100 µM | > 100 µM | > 100 µM | > 100 µM | > 100 µM | > 100 µM | > 100 µM | > 100 µM | – | – |
| CO[C@H]1/C=C/O[C@@]2(C)Oc3c(C)c(O)c4c(O)c(c(/C=N/N5CCN(C)CC5)c(O)c4c3C2=O)NC(=O)/C(C)=C\C=C\[C@H](C)[C@H](O)[C@@H](C)[C@@H](O)[C@@H](C)[C@H](OC(C)=O)[C@@H]1C | – | – | – | – | – | – | – | – | > 100 µM | – |
| CN/N=C(/c1nc2ccc([N+](=O)[O-])cc2[nH]c1=O)C(O)c1ccc(C(O)/C(=N\NC)c2nc3ccc([N+](=O)[O-])cc3[nH]c2=O)cc1 (stereo not drawn) | – | > 100 µM | > 100 µM | > 100 µM | – | > 100 µM | > 100 µM | > 100 µM | – | – |
| COc1ccc(O)c(C(=O)CCC(=O)O)c1 | > 100 µM | > 100 µM | > 100 µM | > 100 µM | – | > 100 µM | > 100 µM | > 100 µM | – | – |
| Nc1nc(N)c2cc(Sc3ccc4ccccc4c3)ccc2n1 | – | – | – | – | – | – | – | – | 4.66 µM | – |
| COc1ccc2c(c1)CN([C@@H](C)[C@H]1CC[C@H]3[C@@H]4CC[C@H]5C[C@@H](O)CC[C@]5(C)[C@H]4CC[C@]13C)CO2 | – | – | – | – | – | – | – | – | 3.38 µM | – |
| CCC1=CCN(c2cc(C)ccn2)OC1c1ccccc1 (stereo not drawn) | 71.2 µM | > 100 µM | > 100 µM | > 100 µM | > 100 µM | > 100 µM | 73.1 µM | > 100 µM | – | – |
| C1=Cc2nc1c(-c1ccccc1)c1ccc([nH]1)c(-c1ccccc1)c1nc(c(-c3ccccc3)c3ccc([nH]3)c2-c2ccccc2)C=C1 | – | > 100 µM | > 100 µM | > 100 µM | > 100 µM | > 100 µM | > 100 µM | > 100 µM | – | – |
| CCOC(=O)C1Cc2ccc3c4c(ccc(c24)C1)CC(C(=O)OCC)C3 | > 100 µM | > 100 µM | > 100 µM | > 100 µM | > 100 µM | – | – | > 100 µM | – | – |
| CC(=O)OC(C(=O)[O][Sn]([CH3])([CH3])[CH3])c1ccccc1 (stereo not drawn) | – | > 100 µM | > 100 µM | > 100 µM | > 100 µM | > 100 µM | > 100 µM | – | – | GI50 (DLD-1 colon): > 100000 nM; GI50 (DMS 114 small cell lung): > 100 µM; GI50 (M19-MEL melanoma): > 100000 nM; GI50 (HOP-18 NSCLC): > 100 µM; GI50 (LXFL 529 NSCLC): 99.5 µM; GI50 (RXF-631 renal): > 100 µM |
| COc1ccc(/C=C2/C(=O)N(C(=O)c3ccccc3O)N=C2C)cc1 | > 100 µM | > 100 µM | 2.25 µM | > 100 µM | – | > 100 µM | – | – | > 100 µM | – |
| C=C1C(=O)OC2C1CCC(C)C1(O)C=CC(=O)C21C (stereo not drawn) | – | – | – | – | – | – | – | – | > 10 µM | – |
| CN(C)c1ccc(/C=C(\NC(=O)c2ccccc2)c2nc3ccc4c(c3[nH]2)C(=O)c2ccccc2C4=O)cc1 | – | 55.7 µM | > 100 µM | > 100 µM | – | > 100 µM | > 100 µM | > 100 µM | – | – |
| CC(=O)c1ccc(NC(=O)C(=O)C(C(=O)/C=C/c2ccccc2)C2OC(=O)c3ccccc32)cc1 (stereo not drawn) | > 100 µM | > 100 µM | – | > 100 µM | > 100 µM | > 100 µM | > 100 µM | > 100 µM | – | – |
| COC(=O)C(=O)C(CC(=O)Nc1ccc(C)cc1)C(=O)OC (stereo not drawn) | > 100 µM | > 100 µM | > 100 µM | > 100 µM | > 100 µM | > 100 µM | > 100 µM | – | – | – |
